Patent US20160007600A1, “SYNTHETIC LIPOCHITOOLIGOSACCHARIDE ANALOGS FOR ENHANCING PLANT PERFORMANCE” (E.I. DU PONT DE NEMOURS AND COMPANY, priority 2013, published 2016)

What was measured:
soybean seeds [1] = assay: Seed germination assay; type: in vivo; settings: for germination in 24 hours: test compound 10^−7 M in DI-water, 24 hr in dark at room temperature, radicle emergence as indicator, five repeats of 20 seeds
Procedure: Materials were all sterilized before use. An aqueous solution of the test compound (25 mL, 10^−7 M in DI-water) was prepared for a set of five repeat experiments. Five Petri dishes and 100 soybean seeds were used to test one compound. A piece of Whatman filter paper was used to cover the inner side of each Petri dish to allow uniform distribution of testing solution. Twenty soybean seeds were placed on the filter paper area of one Petri dish. 5 mL of the test compound solution was carefully poured in the Petri dish. Control experiments were set up the same way with 20 soybean seeds and 5 mL of DI-water per dish without any compounds. The lid was placed on the Petri dish and was sealed with Para-film. Five dishes with repeat experiments were stacked. One stack of dishes was wrapped twice with aluminum foil to prevent the seeds receiving any light. The stacks were transferred to an incubator maintained at room temperature and the seeds were germinated in dark. After 24 hr, the stacks were pulled out for measurement. The number of germinated seeds was counted and the percent of germination on each dish was calculated. Radicle emergence was used as the germination indicator. The dishes were placed unwrapped at room temperature for one day and the number of germinated seeds was counted to assure seeds were able to germinate and different germination yields were not caused by bad seed quality. Seeds showing above 90% of germination were considered normal. The standard deviation of five repeats was calculated. Test results with 10% or lower standard deviation was considered good. Compounds acting as plant performance enhancers should promote a significant increase in average percentage of germination compared to the control above the standard deviation.

soybean seeds [2] = assay: Plant growth assay (radical length of germinating seed); type: in vivo; settings: soybean seeds germinated 24 hr with 10^−7 M compound, then additional 40 hr open to light at room temperature
Procedure: Plant growth assay Seeds germinated for 24 hr using the seed germination assay above were left open to light for another 40 hr. The radical length was measured and the percentage of germinating seed with radical length of greater than 1.5 cm was determined.

Row | Structure (SMILES) | efficacy for enhanced seed germination and radical growth (summary in words) (soybean seeds [1]; conclusion from the germination and plant growth assays) | germination in 24 hours (soybean seeds [1]) [%] | germinating seed with radical length longer than 1.5 cm (soybean seeds [2]) [%]
1 | CO[C@@H]1O[C@H](CO)[C@@H](O)[C@H](O)[C@H]1N [(2R,3S,4R,5R,6R)-5-amino-2-(hydroxymethyl)-6-methoxytetrahydro-2H-pyran-3,4-diol, reference compound] | insignificant efficacy | 53 | 45
2 | CO[C@@H]1O[C@H](CO)[C@@H](O)[C@H](O)[C@H]1NC(=O)/C=C/c1ccc(C)cc1 [Example 2, (E)-N-((2R,3R,4R,5S,6R)-4,5-dihydroxy-6-(hydroxymethyl)-2-methoxytetrahydro-2H-pyran-3-yl)-3-(p-tolyl)acrylamide] | – | 70 | 66
3 | CO[C@@H]1O[C@H](CO)[C@@H](O)[C@H](O)[C@H]1NC(=O)/C=C/c1cccc(C(F)(F)F)c1 [Example 4, (E)-N-((2R,3R,4R,5S,6R)-4,5-dihydroxy-6-(hydroxymethyl)-2-methoxytetrahydro-2H-pyran-3-yl)-3-(3-(trifluoromethyl)phenyl)acrylamide] | – | 75 | 69
4 | CO[C@@H]1O[C@H](CO)[C@@H](O)[C@H](O)[C@H]1NC(=O)/C=C/c1cccc(C)c1 [Example 3, (E)-N-((2R,3R,4R,5S,6R)-4,5-dihydroxy-6-(hydroxymethyl)-2-methoxytetrahydro-2H-pyran-3-yl)-3-(m-tolyl)acrylamide] | – | 61 | 56
5 | CO[C@@H]1O[C@H](CO)[C@@H](O)[C@H](O)[C@H]1NC(=O)C#Cc1ccccc1 [Example 5, N-((2R,3R,4R,5S,6R)-4,5-dihydroxy-6-(hydroxymethyl)-2-methoxytetrahydro-2H-pyran-3-yl)-3-phenylpropiolamide] | – | 86 | 95
6 | CO[C@@H]1O[C@H](CO)[C@@H](O)[C@H](O)[C@H]1NC(=O)/C=C/C=C/c1ccccc1 [Example 1, (2E,4E)-N-((2R,3R,4R,5S,6R)-4,5-dihydroxy-6-(hydroxymethyl)-2-methoxytetrahydro-2H-pyran-3-yl)-5-phenylpenta-2,4-dienamide] | – | 75 | 69
